These results are taken from patent publication US20260325465A1, “SHP-1 INHIBITORS FOR TREATING CANCER” (MDX MANAGEMENT LLC, priority 2022, published 2026).

Where only a bound is given, the exact number is not on record here.

Data set [1] concerns PTP activity in macrophages. The data set can be described thus: PTP activity in macrophages co-cultured with cancer cells and stimulated with IFNγ/LPS or TLR agonists. On the set-up: concentration or dose not given beside the values. In kind it is cell-based. Conditions: induced by IFNγ/LPS or TLR agonists, with cancer cell ligation, 30 min, 37 °C. On the procedure:
FIGS. 3A-3E depict modulation of SHP-1 activity in proinflammatory macrophages in cancer. Macrophages co-cultured with cancer cells were stimulated with IFNγ/LPS or TLR agonists (αTLR) comprising CpG, polycytidylic acid (i.e., PolyI:C) and R848 (each 0.4 μg/ml) for 30 min (37 °C) in the presence or the absence of different SHP-1 or SHP-2 inhibitor or activator, followed by cell lysis and assays of PTP activity. FIG. 3A depicts SHP-1 activity regulation mechanisms. […] FIG. 3E depicts that PKCθ negatively regulates SHP-1 activity at a moderate level.

For data set [2], the system named is KPC pancreatic ductal adenocarcinoma. The data set can be described thus: Study-4: late-stage, large KPC pancreatic cancer. In kind it is in vivo, mice. On the procedure: FIGS. 14A-14E depict that pulse-intermittent inhibition of SHP-1 (iSHP-1) combined with TLR agonists (αTLR) treating late-stage KPC pancreatic ductal adenocarcinoma. FIG. 14A depicts the treatment scheme. Mice with large KPC tumors were treated (i.p.) consecutively for three days with TPI-I plus TLR agonists (CpG, PolyIC and R848, each 50 μg). After the initial pulse treatment, an intermittent period of 9-day was given before the 2nd cycle of treatment of two days with TPI plus TLR agonists. FIG. 14B depicts the luminescent images of mice with KPC tumor during the course of treatment. FIG. 14C depicts tumor volume changes.
Murine models: Single large pancreatic ductal adenocarcinoma (KPC-luc) C57BL6 syngeneic
Treatments: SHP-1 inhibition (iSHP-1) combined with TLR agonists (αTLR)

The test system of data set [3] is THP-1 leukemia cells and HT29 colon cancer cells. In words: Phagocytosis by human monocytes-derived macrophages. In kind it is cell-based. Conditions: 1 μg/ml. As for the experimental part: FIGS. 2A-2G depict that the inhibition of SHP-1 enhances macrophage proinflammatory response, antigen presentation and phagocytosis in a tumor milieu. FIG. 2A and FIG. 2B depict that SHP-1 activity in macrophages is triggered by proinflammatory stimulation and the extracellular cancer cell ligation (“touching”) of macrophages (green bar in FIG. 2A). […] The SHP-2 inhibitor SHP099 (1 μg/ml) was used in assays. FIG. 2C depicts the inhibition of SHP-1 by TPI-1 dose-dependently recovers IFNγ/LPS-induced activation of STAT1 (p-STAT1) and Erk1/2 (p-Erk1/2) de-activated by SHP-1 (red line). FIG. 2D and FIG. 2E depict that the inhibition of SHP-1 in macrophages by TPI-1 enhances production of proinflammatory cytokines (FIG. 2D) and expression of immunogenic antigen presentation machinery (FIG. 2E) by IFNγ/LPS in a tumor milieu. […] The SHP-1 and SHP-2 inhibitors TPI-1 and SHP099, respectively, was used at 1 μg/ml in assays.

A short description of another data set: Study-3: adverse effects. Conditions: TPI-1 with RT and αPD-L1. In kind it is in vivo, mice. On the procedure: FIGS. 13A-13E depict pulse-intermittent SHP-1 inhibition (iSHP-1) combination with RT and αPD-L1 treating pancreatic cancer and lung cancer. FIG. 13A depicts experimental schemes. […] Concomitantly, the tumor at the right flank was treated with 8Gy X-ray radiation (RT). After two days of intermittent period, mice on day 4 were treated with the 2nd cycle TPI-1 (i.p.) of the same dose while RT reduced to 4Gy applied to the right flank tumor. The 3rd cycle (day 7) iSHP-1 combination with RT reduced to 2Gy. Anti-PD-L1 Ab (100 μg, i.p.) was given a day following TPI-1 plus RT. FIG. 13B depicts luminescent image tracing KPC-luc and LLC-luc tumor changes post treatment. FIG. 13C depicts record of tumor volume changes and animal survival up to post-treatment 45 days.
Modalities & Dosing Strategy: i) iSHP-1—TPI-1, 3 or 5 mg/kg, i.p., 1× every 3 days. ii) Tumor focal RT: 8Gy-4Gy-2Gy, given to right flank simultaneously with iSHP-1. iii) αPD-L1: 100 μg, i.p., given a day after iSHP-1 plus RT

The subject of data set [4] is MC38 colorectal carcinoma. In words: Study-2: multi-lesion MC38 colorectal carcinoma, efficacy. In kind it is in vivo, mice. The note with it: intermittent iSHP-1 with αTLR, or αTLR and αPD-L1. On the procedure:
FIGS. 12A-12D depict that pulse-intermittent inhibition of SHP-1 (iSHP-1) combined with TLR agonists (αTLR) and/or anti-PD-L1 checkpoint inhibitor effectively treat multi-lesion MC38 colorectal carcinoma. FIG. 12A depicts the treatment scheme. Mice with bilateral MC38 tumors (s.c.) were treated for two days with TPI-1 and various combinations via i.p. or s.c. A 5-day intermittent period was given before the 2nd cycle of treatments to mice that had residue tumors. FIGS. 12B and 12C depict tumor control efficacies measured by tumor volume changes (FIG. 12B) and TME reprogramming, indicating increases in tumor killing immune populations while reduction of immunosuppression. FIG. 12D depicts acute adverse toxicity, measured by body weight, proteinuria, serum ALT level and splenomegaly.

In a further data set the test system is KPC pancreatic tumor. In words: Cytokines, antigen presentation and chemokines in KPC tumor after treatment. In kind it is in vivo, murine. The source says:
FIGS. 7A-7F depict that the inhibition of SHP-1 unleashes proinflammatory response and antigen presentation in solid tumor upon therapies. […] Low PTP/SHP-1 activity was found in untreated, homeostatic tumor. […] Similar data were obtained by studying colorectal carcinoma MC38.

Data set [5] concerns KPC pancreatic adenocarcinoma. In words: Study-1: continuous vs intermittent iSHP-1 with TLR agonists, efficacy. In kind it is in vivo, mice. The note with it: 1, 3 and 10 mg/kg i.p., with CpG plus PolyI:C. As for the experimental part: FIGS. 11A-11E depict the impact of continuous or intermittent iShp-1 treatment on the efficacy and adverse toxicity. FIG. 11A depicts the study design. Mice with KPC pancreatic cancer were either continuously treated with TPI-1 (1× per day) or in an intermittent fashion with gapping days between two treatments (intermittent). Three doses, 1, 3 and 10 mg/kg (i.p.), were tested and TLR agonists (CpG plus PolyI:C, each 10 μg, i.p., 1× every 3 day) was given to kickstart inflammatory response. […] Tumor imaging (FIG. 11B) and volume change records (FIG. 11C) indicate similar efficacies of iShp-1 with continuous or intermittent schemes.
Tumor model: Single engraftment of KPC pancreatic adenocarcinoma
Treatments & dosing strategies: i) iSHP-1—TPI-1, 1, 3, and 10 mg/kg; i.p. either 1× per day (continuous), or following an intermittent schedule depicted in FIG. 11. ii) TLR agonists (αTLR)—CpG, PolyI:C, each 10 μg; i.p. every 3 days

Where [6] appears, read: with αTLR or RT, single dose TPI-1.
The mark [7] stands for this setting: with αTLR or RT, single dose TPI-1, 6-18 h.

`O=C1C=CC(=O)C(c2cc(Cl)ccc2Cl)=C1` [TPI-1]: in data set [1], the “PTP activity diminished in macrophages” value is recorded as above 70%. In data set [2] (TPI-1 combined with αTLR, i.p.), the anti-tumor immune cells result was “bolstered anti-tumor immune cells such as CD8+ T cells, NK cells and neutrophils”; the “eradication of late-stage tumors” value is reported as “effectively eradiated late-stage, large KPC pancreatic cancers”. The intratumoral immunosuppressive populations result in data set [2] (TPI-1 with TLR agonists, day 4) is “reduction of intratumoral immunosuppressive populations including macrophages (MØ) and MDSC”. Moreover, the “phagocytosis of cancer cells” value in data set [3] is on record as “promotes proinflammatory-activated macrophages for phagocytosis of cancer cells”. In the data set “Study-3: adverse effects”, the lung inflammation result is “nor did it incur lung inflammation” and the “splenomegaly, body weight loss, anemia” value is “did not cause splenomegaly, body weight loss or anemia”. Further, the “tumor regression, combination” value in data set [4] is given as “effectively regressed multiple lesions of MC38 colorectal cancer”. Besides, in the data set on KPC pancreatic tumor (with TLR agonists or RT, single dose TPI-1, 6-18 h post treatment), the “proinflammatory cytokines in tumor” value is reported as “high expression of proinflammatory cytokines”. Moreover, in the data set with KPC pancreatic tumor (setting [6]), the “TGFRs and CCL2 in TME” value is on record as “reduced”; the “chemokines that attract neutrophils, NK and T cells” value was “increased in the TME”. For the same molecule, in the data set on KPC pancreatic tumor (setting [7]), the “IL-10 and TGFβ in tumor” value is “abating IL-10 and TGFβ”; the “antigen presentation markers of intratumoral macrophages” value is “elevated cell surface markers MHC-I, MHC-II, and costimulatory molecules CD80, CD86, CD40, OX40L”. Besides, the tumor response entry in data set [5] is “restrained KPC pancreatic tumor growth and induced tumor regression”.
